Laboratory results: the supplement of paper PMC10307832

Legend:
Assay in all cases: relative viability (nuclei count vs DMSO), 5 days (fraction); higher = more cells survive
[1] = compound: Cn1cc(-c2cnc3ccc4ccc(CS(=O)(=O)NCc5ccccn5)cc4c(=O)c3c2)cn1 [MK-8033] + Cc1nc(NC(=O)N2CCC[C@H]2C(N)=O)sc1-c1ccnc(C(C)(C)C(F)(F)F)c1 [Alpelisib] (partner 2 µM)
Summary of the method: (§1)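 Relative viability divides the nuclei count in treated wells by that in vehicle wells. Lung cancer cell lines were seeded in 1536-well plates, dosed by pin tool the next day, and fixed and stained after 5 days in one step with final 0.05% Triton X-100, 1% formaldehyde and 1 ug/ml Hoechst. Dosing was a single drug or a fixed anchor-drug dose plus five library-drug doses (not always all listed) in √10 steps, and values are medians of duplicate plates imaged at 4×.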

[2] = compound: Cn1cc(-c2cnc3ccc4ccc(CS(=O)(=O)NCc5ccccn5)cc4c(=O)c3c2)cn1 [MK-8033] + COc1cccc2cc(-c3nc([C@H]4CC[C@H](C(=O)O)CC4)n4ncnc(N)c34)[nH]c12 [OSI-027] (partner 0.5 µM)
Summary of the method: as §1

[3] = compound: Cn1cc(-c2cnc3ccc4ccc(CS(=O)(=O)NCc5ccccn5)cc4c(=O)c3c2)cn1 [MK-8033] + C[C@@H](Oc1cc(-c2cnn(C3CCNCC3)c2)cnc1N)c1c(Cl)ccc(F)c1Cl [Crizotinib] (partner 1 µM)
Summary of the method: as §1

[4] = compound: Cn1cc(-c2cnc3ccc4ccc(CS(=O)(=O)NCc5ccccn5)cc4c(=O)c3c2)cn1 [MK-8033] + COc1cc2c(Oc3ccc(NC(=O)C4(C(=O)Nc5ccc(F)cc5)CC4)cc3F)ccnc2cc1OCCCN1CCOCC1 [Foretinib] (partner 0.25 µM)
Summary of the method: as §1

Cell Line | relative viability ([1]; first compound 0.02 µM) | relative viability ([1]; first compound 0.06325 µM) | relative viability ([1]; first compound 0.2 µM) | relative viability ([1]; first compound 0.6325 µM) | relative viability ([1]; first compound 2 µM) | relative viability ([2]; first compound 0.02 µM) | relative viability ([2]; first compound 0.06325 µM) | relative viability ([2]; first compound 0.2 µM) | relative viability ([2]; first compound 0.6325 µM) | relative viability ([2]; first compound 2 µM) | relative viability ([3]; first compound 0.02 µM) | relative viability ([3]; first compound 0.06325 µM) | relative viability ([3]; first compound 0.2 µM) | relative viability ([3]; first compound 0.6325 µM) | relative viability ([3]; first compound 2 µM) | relative viability ([4]; first compound 0.02 µM) | relative viability ([4]; first compound 0.06325 µM) | relative viability ([4]; first compound 0.2 µM) | relative viability ([4]; first compound 0.6325 µM) | relative viability ([4]; first compound 2 µM)
HOP-62 | 0.987 | 0.75 | 1.05 | 0.956 | 0.938 | 0.83 | 0.821 | 0.756 | 0.84 | 0.896 | 0.857 | 0.899 | 0.808 | 0.894 | 0.878 | 1.07 | 1.07 | 1.03 | 1.06 | 1.18
LC-2-ad | 0.888 | 0.864 | 0.825 | 0.823 | 0.849 | 0.806 | 0.91 |  | 0.884 | 0.789 | 0.423 | 0.347 | 0.393 | 0.447 | 0.445 | 0.94 | 0.867 |  | 0.981 | 0.944
LCLC-97TM1 | 0.199 | 0.234 | 0.205 | 0.207 | 0.235 | 0.519 | 0.456 | 0.431 | 0.592 | 0.568 | 0.393 | 0.261 | 0.508 | 0.383 | 0.379 | 0.9 | 0.924 | 0.925 | 0.951 | 0.969
LCLC-103H | 1.07 | 0.872 | 0.94 | 0.942 | 0.959 | 0.412 | 0.469 | 0.437 | 0.448 | 0.509 | 1.02 | 0.926 | 0.99 | 1.06 | 1.04 | 0.747 | 0.707 | 0.696 | 0.84 | 0.806
LK-2 | 1.22 | 1.04 | 1.02 | 1.17 | 1 | 0.202 | 0.227 | 0.22 | 0.189 | 0.276 | 0.228 | 0.226 | 0.244 | 0.23 | 0.25 | 1.05 |  | 1.13 | 1.42 | 1.08
LOU-NH91 | 0.727 |  | 0.69 | 0.702 | 0.699 | 0.74 | 0.453 | 0.7 | 0.667 | 0.752 | 0.724 |  | 0.715 | 0.732 | 0.75 | 0.94 | 0.583 | 0.906 | 0.878 | 0.9
LU99A | 0.629 | 0.489 | 0.523 | 0.464 | 0.412 | 0.315 | 0.251 | 0.299 | 0.298 | 0.307 | 0.692 | 0.542 | 0.619 | 0.491 | 0.525 | 0.903 | 0.716 | 0.834 | 0.841 | 0.743
LXF-289 | 1.08 | 0.984 | 0.976 | 0.994 | 0.998 | 0.809 | 0.668 | 0.667 | 0.83 | 0.806 | 0.738 | 0.77 | 0.777 | 0.819 | 0.773 | 0.965 | 0.934 | 0.938 | 1.04 | 0.965
